Reference: article PMC6732362, “Cancer-associated variants of human NQO1: impacts on inhibitor binding and cooperativity” (Bioscience Reports, 2019)

Key:
[1] = molecular target: T1, human NQO1 p.R139W (Homo sapiens, UniProt P15559, R139W)
[2] = molecular target: T2, human NQO1 p.P187S (Homo sapiens, UniProt P15559, P187S); test: Differential scanning fluorimetry (FAD release on thermal denaturation); type: binding
T2 construct: hexahistidine; made in house; host or cells: Escherichia coli

[3] = molecular target: T3, human wild-type NQO1 (Homo sapiens, UniProt P15559); test: as above; type: binding; set-up: hexahistidine; made in house; host or cells: Escherichia coli; settings: for effect on stability towards thermal denaturation (ΔTm): wild-type NQO1, concentration-dependent
[4] = molecular target: T3, human wild-type NQO1
[5] = molecular target: T3, human wild-type NQO1; test: biochemical
[6] = molecular target: T1, human NQO1 p.R139W; test: Differential scanning fluorimetry (FAD release on thermal denaturation); type: binding; set-up: hexahistidine; made in house; host or cells: Escherichia coli; settings: for effect on stability towards thermal denaturation (ΔTm): p.R139W, concentration-dependent
[7] = molecular target: T1, human NQO1 p.R139W; test: biochemical
[8] = wild-type, Dixon and [S]/v plots (data not shown)

T3 sequence (P15559 whole entry): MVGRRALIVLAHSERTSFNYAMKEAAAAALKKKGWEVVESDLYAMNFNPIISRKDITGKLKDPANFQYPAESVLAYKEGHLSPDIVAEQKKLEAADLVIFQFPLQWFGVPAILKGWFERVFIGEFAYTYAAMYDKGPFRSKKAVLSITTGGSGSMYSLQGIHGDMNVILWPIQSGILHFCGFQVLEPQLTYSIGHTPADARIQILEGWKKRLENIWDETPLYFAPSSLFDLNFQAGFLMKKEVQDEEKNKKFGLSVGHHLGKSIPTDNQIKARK
T1 sequence (P15559 whole entry R139W): as the sequence (P15559 whole entry) above, with R139W counted along it
T2 sequence (P15559 whole entry P187S): as the sequence (P15559 whole entry) above, with P187S counted along it

| Hill coefficient (h) ([1]; p.R139W, no additional FAD, 70 μM DCPIP, 300 μM NADH, mean of three Hill plots ± SD) | effect on stability towards thermal denaturation (ΔTm) [2] | Kd ([3]; wild-type NQO1 2 μM dimer, from ΔTm vs inhibitor concentration, HEPES-OH pH 7.3, read-out: KD,app) [mM] | effect on stability towards thermal denaturation (ΔTm) [3] | type of inhibition ([4]; NQO1, Dixon and [S]/v plots) | Hill coefficient (h) ([4]; wild-type NQO1, no additional FAD, 70 μM DCPIP, 300 μM NADH, mean of three Hill plots ± SD) | Ki [5] [mM] | Kd ([6]; p.R139W 2 μM dimer, from ΔTm vs inhibitor concentration, HEPES-OH pH 7.3, read-out: KD,app) [mM] | effect on stability towards thermal denaturation (ΔTm) [6] | Ki [7] [mM] | type of inhibition with respect to NADH ([1]; p.R139W (data not shown)) | type of inhibition with respect to NADPH ([1]; p.R139W (data not shown)) | type of inhibition with respect to NADH [4, 8] | type of inhibition with respect to NADPH [4, 8] | SMILES |
| --- | --- | --- | --- | --- | --- | --- | --- | --- | --- | --- | --- | --- | --- | --- |
| 0.92 ± 0.05 | no detectable effect | 6 ± 0.9 | stabilized | mixed | 0.91 ± 0.06 | 14 ± 4.34 | 18.2 ± 5.2 | stabilized | 13.5 ± 3.22 |  |  |  |  | NC(=O)c1cccnc1 [Nicotinamide, nicotinamide] |
|  | destabilised |  | destabilised |  |  | 0.375 ± 0.129 |  | destabilised |  | uncompetitive | mixed | mixed | competitive | Oc1ccc(/C=C/c2cc(O)cc(O)c2)cc1 [Resveratrol, resveratrol] |
